# Laboratory results reported in ChEMBL document CHEMBL1154835, “Antimicrobial study of newly synthesized 6-substituted indolo[1,2-c]quinazolines” (2010).
# Tests used:
# Staphylococcus aureus [1] = experiment: Antimicrobial activity against Staphylococcus aureus at 1000 ug after 24 hrs by cup plate method; assay type: functional; conditions: read-out: DIZ
# Bacillus subtilis [2] = experiment: Antimicrobial activity against Bacillus subtilis at 1000 ug after 24 hrs by cup plate method; assay type: functional; conditions: read-out: DIZ
# Streptococcus pyogenes [3] = experiment: Antimicrobial activity against Streptococcus pyogenes at 1000 ug after 24 hrs by cup plate method; assay type: functional; conditions: read-out: DIZ
# Escherichia coli [4] = experiment: Antimicrobial activity against Escherichia coli at 1000 ug after 24 hrs by cup plate method; assay type: functional; conditions: read-out: DIZ
# Salmonella enterica [5] = experiment: Antimicrobial activity against Salmonella Typhimurium at 1000 ug after 24 hrs by cup plate method; assay type: functional, Salmonella enterica subsp. enterica serovar Typhimurium; conditions: read-out: DIZ
# Klebsiella pneumoniae [6] = experiment: Antimicrobial activity against Klebsiella pneumoniae at 1000 ug after 24 hrs by cup plate method; assay type: functional; conditions: read-out: DIZ
# Aspergillus niger [7] = experiment: Antimicrobial activity against Aspergillus niger at 1000 ug after 72 hrs by cup plate method; assay type: functional; conditions: read-out: DIZ
# Candida albicans [8] = experiment: Antimicrobial activity against Candida albicans at 1000 ug after 72 hrs by cup plate method; assay type: functional; conditions: read-out: DIZ
# Trichoderma viride [9] = experiment: Antimicrobial activity against Trichoderma viride at 1000 ug after 72 hrs by cup plate method; assay type: functional; conditions: read-out: DIZ
# Staphylococcus aureus [10] = experiment: Antimicrobial activity against Staphylococcus aureus after 24 hrs by liquid dilution method; assay type: functional
# Bacillus subtilis [11] = experiment: Antimicrobial activity against Bacillus subtilis after 24 hrs by liquid dilution method; assay type: functional
# Streptococcus pyogenes [12] = experiment: Antimicrobial activity against Streptococcus pyogenes after 24 hrs by liquid dilution method; assay type: functional
# Salmonella enterica [13] = experiment: Antimicrobial activity against Salmonella Typhimurium after 24 hrs by liquid dilution method; assay type: functional, Salmonella enterica subsp. enterica serovar Typhimurium
# Escherichia coli [14] = experiment: Antimicrobial activity against Escherichia coli after 24 hrs by liquid dilution method; assay type: functional
# Klebsiella pneumoniae [15] = experiment: Antimicrobial activity against Klebsiella pneumoniae after 24 hrs by liquid dilution method; assay type: functional
# Aspergillus niger [16] = experiment: Antimicrobial activity against Aspergillus niger after 24 hrs by liquid dilution method; assay type: functional
# Candida albicans [17] = experiment: Antimicrobial activity against Candida albicans after 24 hrs by liquid dilution method; assay type: functional
# Trichoderma viride [18] = experiment: Antimicrobial activity against Trichoderma viride after 24 hrs by liquid dilution method; assay type: functional
SMILES,zone of inhibition at 1000 µg/disc (Staphylococcus aureus [1]) [mm],zone of inhibition at 1000 µg/disc (Bacillus subtilis [2]) [mm],zone of inhibition at 1000 µg/disc (Streptococcus pyogenes [3]) [mm],zone of inhibition at 1000 µg/disc (Escherichia coli [4]) [mm],zone of inhibition at 1000 µg/disc (Salmonella enterica [5]) [mm],zone of inhibition at 1000 µg/disc (Klebsiella pneumoniae [6]) [mm],zone of inhibition at 1000 µg/disc (Aspergillus niger [7]) [mm],zone of inhibition at 1000 µg/disc (Candida albicans [8]) [mm],zone of inhibition at 1000 µg/disc (Trichoderma viride [9]) [mm],MIC (Staphylococcus aureus [10]) [µg/mL],MIC (Bacillus subtilis [11]) [µg/mL],MIC (Streptococcus pyogenes [12]) [µg/mL],MIC (Salmonella enterica [13]) [µg/mL],MIC (Escherichia coli [14]) [µg/mL],MIC (Klebsiella pneumoniae [15]) [µg/mL],MIC (Aspergillus niger [16]) [µg/mL],MIC (Candida albicans [17]) [µg/mL],MIC (Trichoderma viride [18]) [µg/mL]
c1ccc2cc(-c3nc4ccccc4c4cc5ccccc5n34)c(-c3nc4ccccc4c4cc5ccccc5n34)cc2c1,50,45,39,12,14,35,17,16,12,5,15,15,35,35,20,35,25,30
c1ccc2c(c1)cc1c3ccccc3nc(-c3ccc(Oc4ccc(-c5nc6ccccc6c6cc7ccccc7n56)cc4)cc3)n21,18,14,13,14,11,21,10,9,18,,,,,,,,,
c1ccc(-c2nc3ccccc3c3cc4ccccc4n23)c(-c2nc3ccccc3c3cc4ccccc4n23)c1,52,40,46,16,18,14,20,13,18,5,20,20,25,20,30,20,35,35
c1cc(-c2nc3ccccc3c3cc4ccccc4n23)cc(-c2nc3ccccc3c3cc4ccccc4n23)c1,51,46,48,20,35,18,12,15,21,5,15,15,20,10,35,30,30,25
c1ccc2c(c1)cc1c3ccccc3nc(-c3ccc(-c4nc5ccccc5c5cc6ccccc6n45)cc3)n21,25,14,18,16,11,13,12,21,9,,,,,,,,,
COc1ccc2[nH]cc(-c3nc4ccccc4c4cc5ccccc5n34)c2c1,50,49,39,50,42,46,49,48,49,5,5,10,5,5,5,10,15,10
